Data on 1 molecule can be found in patent US6869964B2, “Heterocyclicsulfonamide hepatitis C virus inhibitors” (Bristol-Myers Squibb Company, priority 2002, dated 2005).

pIC50: −log10 of the molar value. Read-outs that look alike come from different tables or passages of the source.

The target of assay [1] is T1, HCV NS3/4A protease complex (BMS strain) (Hepatitis C virus genotype 1a, UniProt P27958, C1454S).
T1 construct: HCV NS3/4A protease complex (amino acids 1027 to 1711); inferred from pET21b vector and Ni-NTA purification; made in house; host or cells: Escherichia coli BL21 (DE3), pET21b
Description: Recombinant HCV NS3/4A protease complex FRET peptide assay, BMS strain. The format is biochemical, HCV genotype 1a. The essentials:
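Recombinant NS3/4A (aa 1027–1711) carried a three-lysine tail, C1711G and C1454S, was expressed in E. coli BL21(DE3) and purified by Ni-NTA and Superdex-S200 to >90% purity. Inhibition of protease cleavage of a FRET peptide was measured in vitro.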

Assay [2] addresses T2, human sputum elastase (HS) (Homo sapiens, UniProt P08246).
T2 construct: human sputum elastase (HS); from tissue; host or cells: human sputum (from the enzyme's name only)
T2 sequence (P08246 30-267): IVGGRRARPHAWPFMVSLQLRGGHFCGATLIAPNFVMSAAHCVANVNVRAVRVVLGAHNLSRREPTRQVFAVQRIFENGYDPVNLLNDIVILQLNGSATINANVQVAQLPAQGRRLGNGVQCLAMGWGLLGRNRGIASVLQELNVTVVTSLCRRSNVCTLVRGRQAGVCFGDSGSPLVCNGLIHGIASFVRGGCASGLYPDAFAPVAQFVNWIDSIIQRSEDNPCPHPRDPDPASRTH
Description: Specificity assay, human sputum elastase. The format is biochemical. Conditions: 2 hr enzyme-inhibitor pre-incubation. The protocol: (§1) The specificities of compounds of the present invention were determined against a variety of serine proteases: human sputum elastase (HS), porcine pancreatic elastase (PPE) and human pancreatic chymotrypsin and one cysteine protease: human liver cathepsin B. In all cases a 96-well plate format protocol using colorimetric p-nitroaniline (pNA) substrate specific for each enzyme was used as described previously (CT 2633 application) with some modifications to the serine protease assays.
(§2) Each assay included a 2 hr enzyme-inhibitor pre-incubation at RT followed by addition of substrate and hydrolysis to ˜30% conversion as measured on a Spectramax Pro microplate reader. Compound concentrations varied from 100 to 0.4 μM depending on their potency.
(§3) The final conditions and protocol for the serine protease assays were: • 50 mM Tris(hydroxymethyl)aminomethane hydrochloride (Tris-HCl) pH8, • 0.5M Sodium Sulfate (Na2SO4), 50 mM NaCl, 0.1 mM EDTA, 3% DMSO, • 0.01% Tween-20 with: 133 μM succ-AAA-pNA and 20 nM HS or 8 nM PPE; 100 μM succ-AAPF-pNA and 250 pM Chymotrypsin.
(§4) The percentage of inhibition was calculated using the formula: [1−((UVinh−UVblank)/(UVctl−UVblank))]×100
(§5) A non-linear curve fit was applied to the inhibition-concentration data, and the 50% effective concentration (IC50) was calculated by the use of Excel Xl-fit software.

For assay [3], the target named is T3, porcine pancreatic elastase (PPE) (Sus scrofa, UniProt P00772).
T3 construct: porcine pancreatic elastase (PPE); from tissue; host or cells: porcine pancreas (from the enzyme's name only)
As to the kind of experiment: Specificity assay, porcine pancreatic elastase. The format is biochemical. Conditions: 2 hr enzyme-inhibitor pre-incubation. The protocol: as §1, §2, §3, §4, §5

T1 sequence (P27958 1027-1657 C1454S): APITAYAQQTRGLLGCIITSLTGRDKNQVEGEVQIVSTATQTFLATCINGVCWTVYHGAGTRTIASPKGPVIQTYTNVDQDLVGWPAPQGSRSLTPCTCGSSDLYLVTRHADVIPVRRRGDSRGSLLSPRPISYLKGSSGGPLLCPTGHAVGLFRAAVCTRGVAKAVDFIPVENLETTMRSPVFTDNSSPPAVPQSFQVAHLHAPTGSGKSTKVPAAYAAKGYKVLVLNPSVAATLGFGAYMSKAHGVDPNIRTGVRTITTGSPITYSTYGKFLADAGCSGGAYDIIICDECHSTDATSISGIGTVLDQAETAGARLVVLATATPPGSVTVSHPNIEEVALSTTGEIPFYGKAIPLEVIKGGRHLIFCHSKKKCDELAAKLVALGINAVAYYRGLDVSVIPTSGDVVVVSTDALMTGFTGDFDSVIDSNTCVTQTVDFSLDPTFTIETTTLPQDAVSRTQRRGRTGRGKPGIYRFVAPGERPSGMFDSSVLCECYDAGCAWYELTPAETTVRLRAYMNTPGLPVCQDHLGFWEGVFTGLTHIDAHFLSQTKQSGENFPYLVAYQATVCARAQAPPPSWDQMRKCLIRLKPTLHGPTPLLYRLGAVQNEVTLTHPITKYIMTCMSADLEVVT
T1 sequence (P27958 1658-1711 partner, looked up, stated change not applied): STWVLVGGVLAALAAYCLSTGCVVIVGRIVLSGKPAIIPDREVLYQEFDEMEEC
T3 sequence (P00772 27-266): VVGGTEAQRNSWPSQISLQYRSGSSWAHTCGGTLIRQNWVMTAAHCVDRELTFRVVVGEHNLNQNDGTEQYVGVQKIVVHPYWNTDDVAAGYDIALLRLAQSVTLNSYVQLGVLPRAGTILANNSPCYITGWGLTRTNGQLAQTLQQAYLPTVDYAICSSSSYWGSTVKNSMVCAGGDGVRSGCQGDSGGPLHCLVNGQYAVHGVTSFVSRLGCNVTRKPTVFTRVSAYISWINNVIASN

`C=CC1C[C@]1(NC(=O)[C@@H]1C[C@@H](Oc2cc(-c3ccccc3)nc3cc(OC)ccc23)CN1C(=O)[C@@H](NC(=O)OC(C)(C)C)C(C)(C)C)C(=O)NS(=O)(=O)c1cccs1` (stereo in doubt) [Compound 1, (1-{4-(7-Methoxy-2-phenylquinolin-4-yloxy)-2-[1-(thiophene-2-sulfonylaminocarbonyl)-2-vinyl-cyclopropylcarbamoyl]-pyrrolidine-1-carbonyl}-2,2-dimethylpropyl)carbamic acid tert-butyl ester]: the pIC50 was 8.10 in assay [1] (BMS strain, read-out: IC50 against the NS3/4A BMS strain in the enzyme assay); > 7.00 in assay [1] (NS3/4A BMS Strain, activity range, read-out: IC50 a, b, c (Activity Table)); 4.46 in assay [2]; < 4.30 in assay [3].
